Data set [1] concerns the target T1, CYP2C9 (Homo sapiens, UniProt P11712). Kind of data set: Radiometric CYP2C9 assay using [4′-3H]-diclofenac: formation of [3H]-H2O in pooled human liver microsomes. On the procedure:
(§1) Radiometric CYP2C9 assays using [4′-^3H]-diclofenac. […] (Woburn, Mass.). Inhibitors were added to the reaction mixture from stock solutions in DMSO/acetonitrile/water (35:25:40, v/v), giving final solvent concentrations of 0.7% DMSO and 0.5% acetonitrile. No inhibitor controls contained an equivalent amount of vehicle. Following preincubation for 10 minutes at 37° C., reactions were started by addition of 1 mM NADPH and an NADPH regenerating system containing 5 mM glucose-6-phosphate, 3 mM MgCl2, and 1 U/mL glucose-6-phosphate dehydrogenase. Assays were conducted for 10 minutes at 37° C. and stopped by addition of HCl to a final concentration of 0.1 N. Plates were then centrifuged for 10 minutes in a microplate rotor and supernatants loaded into the wells of a preconditioned 10 mg OASIS 96-well HLB plate. OASIS HLB 96 well extraction plates and vacuum manifold are available from Waters Corp., Newcastle, Del. Vacuum was applied and the void volume collected in the collection plate. Then, 75 μL of water was added, vacuum was applied again, and the wash was collected into the same plate. Pooled void volume and water wash were transferred into scintillation vials and counted in a beta-scintillation counter. Alternatively, aliquots were counted in 24- or 96-well scintillation plates using a TOPCOUNT scintillation counter (Packard, Perkin Elmer, Boston, Mass.). For the calculation of enzyme activity, product counts were corrected by subtraction of counts obtained in control incubations performed in the absence of NADPH regenerating system.
Calculation of the apparent rate of formation of unlabelled product from tracer competition experiments. When assays are performed using a fixed amount of [4′-^3H]-diclofenac and varying concentrations of unlabelled diclofenac, the velocity of formation of unlabelled product, v, is given by: v=v*/SAP equation 3 where v* is the velocity of formation of tritiated water. Substituting from equation 2, we obtain: v=v*x(^TV/K)/SA0 equation 4 Defining v′ as the velocity of formation of unlabelled product divided by the kinetic isotope effect, i.e. v′=v/(^TV/K) equation 5 we obtain v′=v*/SA0 equation 6 Without using the known ^TV/K ratio (which would be tautological, since it was derived from SAP), v′, the apparent formation rate of unlabelled product, can be calculated. When plotted against the substrate concentration, S, and fitted to the Hill equation (equation 7), V′max, S50, the substrate concentration at 50%, and n, the Hill coefficient, can be derived.

Data set [2] deals with T1, CYP2C9. Briefly: in vitro. On the procedure:
as §1
Quantification of 4′hydroxydiclofenac. Aliquots of the assay reaction mixture and of metabolite standard curves were analyzed by HPLC using an Agilent HP1100 liquid chromatograph (Agilent Technologies) equipped with a CTC Analytics PAL Autosampler (HTS PAL; CTC Analytics AG, Switzerland). Chromatography was performed on a XTERRA MS C18 column (4.6 mm×5 cm; 5 μm; Waters Corp., Medford, Mass.) at a flow rate of 2 mL/min, using a mobile phase consisting of a mixture of 0.1% formic acid in water (A) and 0.1% formic acid in acetonitrile (B) (linear gradient 0 to 0.5 min, 10% B; 3.0 min 90% B, 3.5 min 90% B, 3.6 min 10% B; the system was equilibrated for 1.4 minutes at 10% B prior to the next injection). The eluate was diverted to waste for the first minute, and then to a Sciex API-3000 triple quadruple mass spectrometer (available, for example, from Perkin Elmer, Boston, Mass.) with a Turbo Ionspray ionization source operated in the positive ion mode. […] Metabolite concentrations were determined by weighted linear least-squares regression analysis, using Analyst Quantitation Wizard software version 1.2 (Applied Biosystems, Foster City, Calif.).
To compare IC50 values of several known CYP2C9 inhibitors obtained in the radiometric assay with those obtained by conventional HPLC-mass spectrometric assay, reactions were performed in the absence or presence of different concentrations of known inhibitors. Tritiated water formation and formation of unlabelled reaction product 4′OH-diclofenac were determined in the same reaction mixture. The 4′-OH-diclofenac was quantified by HPLC coupled to triple quadruple mass spectrometric analysis.

Data set [3] has as its target T1, CYP2C9. The conditions noted are these: sulfaphenazole at 10 μM, 10 μM unlabelled diclofenac, FIG. 12.
In data set [4] the target is T1, CYP2C9. The conditions noted are these: Cohen et al.; cited from earlier work.

Molecules are shown by their SMILES.

The values below come from patent US7629140B2, “Assay for cytochrome P450 isoform 2C9” (Istituto di Richerche di Biologia Molecolare P. Angeletti …, priority 2004, dated 2009).

T1 sequence (P11712 whole entry): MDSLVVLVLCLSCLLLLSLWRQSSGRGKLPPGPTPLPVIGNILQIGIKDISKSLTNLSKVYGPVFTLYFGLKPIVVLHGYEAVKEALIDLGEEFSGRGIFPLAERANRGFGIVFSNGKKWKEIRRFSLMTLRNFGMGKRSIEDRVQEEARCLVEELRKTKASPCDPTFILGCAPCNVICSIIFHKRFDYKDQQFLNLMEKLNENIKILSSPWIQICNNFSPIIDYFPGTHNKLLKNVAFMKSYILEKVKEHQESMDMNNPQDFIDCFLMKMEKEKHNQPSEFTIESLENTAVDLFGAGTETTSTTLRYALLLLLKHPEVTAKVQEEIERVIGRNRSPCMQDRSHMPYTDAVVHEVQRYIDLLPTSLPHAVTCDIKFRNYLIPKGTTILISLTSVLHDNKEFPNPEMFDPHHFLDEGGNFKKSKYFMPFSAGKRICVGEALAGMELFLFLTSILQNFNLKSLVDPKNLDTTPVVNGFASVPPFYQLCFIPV

As usually defined, the IC50 is the midpoint of a concentration-inhibition curve. As for `Cc1ccc(C)c(OCCCC(C)(C)C(=O)O)c1` [Gemfibrozil], on CYP2C9 [1], the concentration for half-maximal inhibition (IC50) was found to be 27.7 ± 6.9 µM and the “Ratio (radiometric/conventional)” value was determined as 0.71. The compound further had a half-inhibitory concentration (IC50) on CYP2C9 [2] of 39.1 ± 7.1 µM.

As for `COc1ccc2c(c1)c(CC(=O)O)c(C)n2C(=O)c1ccc(Cl)cc1` [Indomethacin], at CYP2C9 [1], the midpoint of inhibition, the IC50, lay at 54.8 ± 8.1 µM and the “Ratio (radiometric/conventional)” value came out at 0.96. This compound registered an IC50 on CYP2C9 [2] of 57 ± 10.5 µM.

With `COCC(=O)O[C@]1(CCN(C)CCCc2nc3ccccc3[nH]2)CCc2cc(F)ccc2[C@@H]1C(C)C` [Mibefradil], on CYP2C9 [1], the half-maximal inhibitory concentration (IC50) came to 40 ± 5 µM and the “Ratio (radiometric/conventional)” value is 0.69. In addition, the IC50 at CYP2C9 [2] came out at 57.6 ± 9.9 µM.

With `Clc1ccc(COC(Cn2ccnc2)c2ccc(Cl)cc2Cl)c(Cl)c1` (centres unmarked) [Miconazole], the IC50 against CYP2C9 [1] was determined as 0.2 ± 0.02 µM; on CYP2C9 [2], 0.13 ± 0.03 µM. Further, on CYP2C9 [1], the “Ratio (radiometric/conventional)” value is 1.54.

Consider `COc1ccc2[nH]c([S+]([O-])Cc3ncc(C)c(OC)c3C)nc2c1` (centres unmarked) [Omeprazole], for which, at CYP2C9 [1], the IC50 stood at 43.8 ± 10.4 µM and the “Ratio (radiometric/conventional)” value is recorded as 1.04. The compound further showed an IC50 at CYP2C9 [2] of 42.3 ± 15.3 µM.

`CCCCC1C(=O)N(c2ccccc2)N(c2ccccc2)C1=O` [Phenylbutazone]: at CYP2C9 [1], the IC50 came to 41.4 ± 6.5 µM and the “Ratio (radiometric/conventional)” value is given as 0.94. Besides, the IC50 on CYP2C9 [2] stood at 44.2 ± 2.2 µM.

As for `CC(=O)[C@H]1CC[C@H]2[C@@H]3CCC4=CC(=O)CC[C@]4(C)[C@H]3CC[C@]12C` [Progesterone], on CYP2C9 [1], the concentration for half-maximal inhibition (IC50) came out at 25.2 ± 3.1 µM and the “Ratio (radiometric/conventional)” value stood at 1.26. This compound registered an IC50 against CYP2C9 [2] of 20 ± 4.6 µM.

With `CC(=O)C[C@@H](c1ccccc1)c1c(O)c2ccccc2oc1=O` [S-Warfarin], the 50% inhibitory concentration (IC50) on CYP2C9 [1] (read-out: IC50 (μM) radiometric, HLM, formation rate of [3H]-H2O from [4′-3H]-diclofenac, mean ± SEM, n = 2) worked out at 14.6 ± 2.3 µM; on CYP2C9 [2] (read-out: IC50 (μM) Conventional, HLM, formation rate of 4′-hydroxydiclofenac by LC-MS/MS, same reaction mixture, mean ± SEM, n = 2), 8.7 ± 3.6 µM.

Turning to `Nc1ccc(S(=O)(=O)Nc2ccnn2-c2ccccc2)cc1` [Sulfaphenazole], the “Ratio (radiometric/conventional)” value at CYP2C9 [1] worked out at 0.96. The “effect on NADPH-dependent formation of tritiated water from [4′-3H]-diclofenac in HLM (in words)” value on CYP2C9 [1] (human, microsomes) is on record as “inhibited”. Besides, the “effect on formation of tritiated water from [4′-3H]diclofenac in human hepatocytes (in words)” value at CYP2C9 [3] was “almost totally inhibited”.

A word on the Km: it is the concentration of substrate that gives half-maximal velocity. As to `O=C(O)Cc1ccccc1Nc1c(Cl)cccc1Cl` [diclofenac], the “ratio between V′max and Vmax” value on CYP2C9 [1] was found to be 0.9. Further, on CYP2C9 [1] (human, 10 min, pH 7.6), the “Hill coefficient n (v′ vs. S)” value was found to be 1.15±0.05 and the “V′max (apparent maximal rate of product formation)” value was 1.5 ± 0.1 nmol/min/mg. Besides, the Km at 10 min on CYP2C9 [1] (human, microsomes, pH 7.6) worked out at 6.8 ± 1 µM. For the same compound, the “Hill coefficient of 4′-hydroxydiclofenac formation” value at CYP2C9 [2] (human, 10 min, pH 7.6) was determined as 1.1±0.1. In addition, on CYP2C9 [2] (human, microsomes, pH 7.6), the Km at 10 min was determined as 6.2 ± 0.9 µM. The Km on CYP2C9 [2] (human, pH 7.6) was roughly 6 µM.

`Cc1nc2c([nH]1)c(=O)n(C)c(=O)n2Cc1ccco1` [furafylline]: the “effect on NADPH-dependent formation of tritiated water from [4′-3H]-diclofenac in HLM (in words)” value at CYP2C9 [1] (human, microsomes) is reported as “none of these agents significantly affected”.

As to `CC(=O)CC(c1ccccc1)c1c(O)c2ccccc2oc1=O` (centres unmarked) [warfarin], at CYP2C9 [4], the “inhibitor of CYP2C9 when probed with the fluorogenic substrate MFC” value was “not”.
